# In ChEMBL document CHEMBL5150016, “Inhibiting Sodium Taurocholate Cotransporting Polypeptide in HBV-Related Diseases: From Biological Function to Therapeutic Potential” (J Med Chem, 2022):
# pEC50, pIC50, pKd, pKi: −log10 of the molar value.
# Columns and labels:
# [1] = biological target: T1, Hepatic sodium/bile acid cotransporter (Homo sapiens, UniProt Q14973); assay: Inhibition of HBV subgenotype D3 [3H]-myr-preS1 (2 to 48 residues) peptide binding to human NTCP in HEK293 cells preincubated for 5 mins followed by substrate addition and measured after 10 mins using by microplate scintillation counter analysis; assay type: cell-based
# T1 sequence (Q14973 whole entry): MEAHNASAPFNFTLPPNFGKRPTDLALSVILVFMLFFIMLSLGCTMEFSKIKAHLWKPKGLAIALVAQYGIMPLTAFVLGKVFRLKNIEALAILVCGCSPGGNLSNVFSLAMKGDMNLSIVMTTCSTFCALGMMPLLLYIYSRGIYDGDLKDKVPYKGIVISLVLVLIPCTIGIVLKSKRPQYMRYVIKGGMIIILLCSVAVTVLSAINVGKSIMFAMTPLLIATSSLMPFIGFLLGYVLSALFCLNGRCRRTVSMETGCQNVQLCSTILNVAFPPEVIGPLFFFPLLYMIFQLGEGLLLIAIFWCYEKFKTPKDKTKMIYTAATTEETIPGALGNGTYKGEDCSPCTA
# [2] = tested on: Hepatitis B virus; assay: Antiviral activity against HBV infected human HepG2-hNTCP cells assessed as reduction of HBV DNA level preincubated for 3 hrs followed by viral infection for 16 hrs further compound washout and measured 6 days post infection by qPCR analysis; assay type: functional, organism-based
# [3] = tested on: Hepatitis B virus; assay: Antiviral activity against HBV infected HepG2 2.2.15 cells assessed as reduction in HBsAg level at 50 microg/ml for 48 hrs by ELISA; assay type: functional, organism-based; parameters: Activity: scale not given: the % may be the effect or the level left; conditions: for Activity: dose 50 µg/ml, time 48 hrs
# [4] = tested on: Hepatitis B virus; assay: Antiviral activity against HBV infected HepG2 2.2.15 cells assessed as reduction in HBeAg level at 50 microg/ml for 48 hrs by ELISA; assay type: functional; parameters: scale not given: the % may be the effect or the level left; conditions: dose 50 µg/ml
# [5] = tested on: Hepatitis B virus; assay: Antiviral activity against HBV infected in human HepG2-hNTCP cells assessed as reduction in intracellular HBV RNA incubated for 16 hrs followed by compound washout and measured after 6 days post infection by ELISA; assay type: functional, organism-based
# [6] = tested on: Hepatitis B virus; assay: Antiviral activity against HBV infected HepG2 cells assessed as reduction in HBsAg level; assay type: functional, organism-based; conditions: HepG2 2.2.15
# [7] = tested on: Hepatitis B virus; assay: Antiviral activity against HBV infected HepG2 cells assessed as reduction in HBeAg level; assay type: functional, organism-based; conditions: HepG2 2.2.15
# [8] = biological target: T1, Hepatic sodium/bile acid cotransporter; assay: Inhibition of TAMRA-labeled preS1-peptide binding to human NTCP in HepG2-hNTCP cells incubated for 30 mins by […]; assay type: cell-based
# [9] = biological target: T1, Hepatic sodium/bile acid cotransporter; assay: Inhibition of human NTCP mediated TCA uptake in HepG2-hNTCP cells incubated for 15 mins using [3H] taurocholic acid as substrate by liquid scintillation counter analysis; assay type: cell-based
# [10] = tested on: Hepatitis delta virus; assay: Antiviral activity against hepatitis D virus infected in human HepG2-hNTCP cells assessed as reduction in viral replication preincubated for 5 mins followed by viral infection measured after 6 hrs post infection by RT-qPCR analysis; assay type: functional, organism-based
# [11] = tested on: HepG2; assay: Antiproliferative activity against human HEpG2 cells; assay type: functional, cell-based
# [12] = tested on: Hepatitis B virus; assay: Antiviral activity against HBV infected HepG2 2.2.15 cells assessed as reduction in HBsAg level and measured after 9 days by ELISA; assay type: functional, organism-based; conditions: HepG2 2.2.15, 216 h
# [13] = tested on: Hepatitis B virus; assay: Antiviral activity against HBV infected HepG2 2.2.15 cells assessed as reduction in HBeAg level and measured after 9 days by ELISA; assay type: functional, organism-based; conditions: HepG2 2.2.15, 216 h
# [14] = biological target: T1, Hepatic sodium/bile acid cotransporter; assay: Inhibition of preS1-peptide binding to human HA-tagged NTCP in U2OS expresseing NTCP in incubated for 24 hrs using Myrcludex B as substrate by competitive binding assay; assay type: cell-based
# [15] = biological target: T1, Hepatic sodium/bile acid cotransporter; assay: Inhibition of human NTCP mediated TCA uptake in U2OS expresseing HA-tagged NTCP cells preincubated for 10 mins followed by substrate addition and measured after 2 mins using [3H]-taurocholate as substrate by liquid scintillation counter analysis; assay type: cell-based
# [16] = tested on: Hepatitis B virus; assay: Antiviral activity against HBV infected in human HepG2-hNTCP cells assessed as reduction in HBsAg level preincubated for 2 hrs followed by viral infection for 16 hrs further compound washout and measured after 12 days post infection by ELISA; assay type: functional, organism-based
# [17] = tested on: Hepatitis B virus; assay: (§1) Antiviral activity against HBV infected in human DMSO differentiated imHC cells assessed as reduction in intracellular HBV DNA at 30 uM preincubated for 2 hrs followed by viral infection for 18 hrs followed by compound washout and further treated with fresh compound for 24 hrs and measured on day 7 post infection by real-time qPCR analysis; assay type: functional; parameters: scale not given: the % may be the effect or the level left; conditions: time 44 hrs
# [18] = tested on: Hepatitis B virus; assay: as §1, with “viral load” for “intracellular HBV DNA”; assay type: functional; parameters: scale not given: the % may be the effect or the level left; conditions: time 44 hrs
# [19] = biological target: T1, Hepatic sodium/bile acid cotransporter; assay: Binding affinity to human NTCP assessed as dissociation constant by isothermal titration calorimetry
# [20] = tested on: Hepatitis B virus; assay: Antiviral activity against HBV infected human DMSO differentiated HuS-E/2 cells assessed as reduction of HBV core protein level incubated for 20 hrs by Western blot analysis; assay type: functional, organism-based; conditions: HuS-E/2, 20 h
# [21] = tested on: Hepatitis B virus; assay: Antiviral activity against HBV infected human DMSO differentiated HuS-E/2 cells overexpressing NTCP assessed as assessed as inhibition of viral entry by measuring HBV mRNA level at 20 uM by qPCR analysis relative to control; assay type: functional
# [22] = tested on: Hepatitis B virus; assay: Antiviral activity against HBV infected human DMSO differentiated HuS-E/2 cells overexpressing NTCP assessed as assessed as inhibition of viral entry by measuring HBV mRNA level by qPCR analysis; assay type: functional, organism-based
# [23] = biological target: T1, Hepatic sodium/bile acid cotransporter; assay: Binding affinity to NTCP (unknown origin)
# [24] = tested on: Hepatitis delta virus; assay: Antiviral activity against hepatitis D virus infected in human Huh-7 cells overexpressing NTCP assessed as reduction in intracellular HDV RNA for 20 hrs followed by viral infection further compound washout and measured after 6 days post infection by RT-qPCR analysis; assay type: functional, organism-based
compound,measurement,setting,value
C=C(C)[C@@H]1CC[C@]2(/C=N/O)CC[C@]3(C)[C@H](CC[C@@H]4[C@@]5(C)CC[C@H](O)C(C)(C)[C@@H]5CC[C@]43C)[C@@H]12,pIC50,[1],4.96
Cc1cc(OCCCS(C)(=O)=O)cc(C)c1-c1cccc(COc2ccc3c(c2)OC[C@H]3CC(=O)O)c1,pIC50,[2],4.52
C[C@H]1O[C@H](Oc2c(-c3cc(O)c(O)c(O)c3)oc3cc(O)cc(O)c3c2=O)[C@@H](O)[C@@H](O)[C@@H]1O,Activity,[3],44%
same,Activity,[4],35%
O=C1N=C(O)S/C1=C\c1ccc(OCc2ccc(-c3ccccc3)cc2)cc1,pIC50,[5],5.42
Cc1ccc(C(=O)NCC(=O)N/N=C/c2ccccc2OCc2ccccc2Cl)cc1,IC50,[6],3.95 ng/mL
same,IC50,[7],15 ng/mL
C=C(C)[C@@H]1CC[C@]2(CO)CC[C@]3(C)[C@H](CC[C@@H]4[C@@]5(C)CC[C@H](OC(=O)/C=C/c6ccc(O)c(O)c6)C(C)(C)[C@@H]5CC[C@]43C)[C@@H]12,pIC50,[1],5.22
CCCCCCc1c(C)c2ccc(OCC(=O)NC(Cc3ccccc3)C(=O)O)cc2oc1=O (stereo not given),pIC50,[8],3.84
same,pIC50,[9],4.90
Cc1c(Cc2ccccc2)c(=O)oc2cc(OCC(=O)NC(CSCc3ccccc3)C(=O)O)ccc12 (stereo not given),pIC50,[8],3.82
same,pIC50,[9],4.88
COc1ccc([C@H](O)[C@H](c2ccccn2)[C@@H](Nc2ccccn2)c2ccccc2)cc1,pIC50,[1],4.78
same,pIC50,[10],4.15
O=C1NC(=O)/C(=C/c2ccc(-c3ccc(-c4cccc5ccccc45)cc3)cc2)S1,pIC50,[5],5.77
O=Cc1cccc([C@@H]([C@H](Nc2ccccn2)c2ccccc2)[C@@H](O)c2ccccc2)n1,pIC50,[1],4.80
same,pIC50,[10],4.82
O[C@H](c1ccc([C@@H](O)[C@@H](c2ccccn2)[C@H](Nc2ccccn2)c2ccccc2)cc1)[C@@H](c1ccccn1)[C@H](Nc1ccccn1)c1ccccc1,pIC50,[1],5.19
same,pIC50,[10],4.15
CCCCCCc1cc2ccc(OCC(=O)NC(CCSC)C(=O)O)cc2oc1=O (stereo not given),pIC50,[8],3.62
same,pIC50,[9],4.75
CC(C)(C)OC(=O)N1CCN(CC(=O)NCc2cccc(CNS(=O)(=O)c3ccc(C(F)(F)F)cc3)c2)CC1,pIC50,[11],5.13
same,IC50,[6],3.24 ng/mL
same,IC50,[7],7.64 ng/mL
C=C(CO)[C@@H]1CC[C@]2(COC(C)=O)CC[C@]3(C)[C@H](CC[C@@H]4[C@@]5(C)CC[C@H](OC(C)=O)C(C)(C)[C@@H]5CC[C@]43C)[C@@H]12,pIC50,[1],5.10
O=C1NC(=O)C(Cc2ccc(OCc3ccc(-c4ccccc4)cc3)cc2)S1 (stereo not given),pIC50,[5],5.28
Cc1c(OCC(=O)NC(CSCc2ccccc2)C(=O)O)ccc2c3c(c(=O)oc12)CCCC3 (stereo not given),pIC50,[8],3.91
same,pIC50,[9],4.79
CN1CCCC(n2nc(Cc3ccc(Cl)cc3)c3ccccc3c2=O)CC1 (stereo not given) [AZELASTINE],pIC50,[12],5.12
same,pIC50,[13],5.43
C=C(C)[C@@H]1CC[C@]2(COC(C)=O)CC[C@]3(C)[C@H](CC[C@@H]4[C@@]5(C)CC[C@H](OC(C)=O)C(C)(C)[C@@H]5CC[C@]43C)[C@@H]12 [BETULIN DIACETATE],pIC50,[1],3.70
COc1cc(-c2ccc(/N=N/c3ccc4c(S(=O)(=O)O)cc(S(=O)(=O)O)c(N)c4c3O)c(OC)c2)ccc1/N=N/c1ccc2c(S(=O)(=O)O)cc(S(=O)(=O)O)c(N)c2c1O [CHICAGO SKY BLUE],pIC50,[14],< 6.00
same,pIC50,[15],5.15
CC1(COc2ccc(CC3SC(=O)NC3=O)cc2)CCCCC1 (stereo not given) [CIGLITAZONE],pIC50,[16],5.30
COc1cc(/C=C/C(=O)CC(=O)/C=C/c2ccc(O)c(OC)c2)ccc1O [CURCUMIN],Activity,[17],67%
same,Activity,[18],55%
same,pKd,[19],4.19
O=C(O[C@@H]1Cc2c(O)cc(O)cc2O[C@@H]1c1cc(O)c(O)c(O)c1)c1cc(O)c(O)c(O)c1 [EPIGALOCATECHIN GALLATE],pIC50,[20],5.00
CC(C)[C@@H](C)/C=C/[C@@H](C)[C@H]1CC[C@@H]2[C@]1(C)CC[C@H]1[C@]23C=C[C@]2(C[C@@H](O)CC[C@]12C)OO3 [ERGOSTEROL PEROXIDE],inhibition at 20 µM,[21],75%
same,pEC50,[22],5.02
O=C1[C@H](CC[C@H](O)c2ccc(F)cc2)[C@@H](c2ccc(O)cc2)N1c1ccc(F)cc1 [EZETIMIBE],pKi,[23],4.60
same,pEC50,[24],4.98
CCCCC1=NC2(CCCC2)C(=O)N1Cc1ccc(-c2ccccc2-c2nnn[nH]2)cc1 [IRBESARTAN],pEC50,[24],5.03
O=c1c(O)c(-c2ccc(O)c(O)c2)oc2cc(O)cc(O)c12 [QUERCETIN],Activity,[3],60%
same,Activity,[4],62%
CC(C)c1nc(CN(C)C(=O)N[C@H](C(=O)N[C@@H](Cc2ccccc2)C[C@H](O)[C@H](Cc2ccccc2)NC(=O)OCc2cncs2)C(C)C)cs1 [RITONAVIR],pEC50,[24],5.04
CN(CCOc1ccc(CC2SC(=O)NC2=O)cc1)c1ccccn1 (stereo not given) [ROSIGLITAZONE],pIC50,"[3]; Hepatitis B virus, HepG2 2.2.15, 48 h",5.29
O=C(O)c1cc(/N=N/c2ccc(S(=O)(=O)Nc3ccccn3)cc2)ccc1O [SULFASALAZINE],pIC50,[14],< 6.00
Cc1c(C)c2c(c(C)c1O)CCC(C)(COc1ccc(CC3SC(=O)NC3=O)cc1)O2 (stereo not given) [TROGLITAZONE],pIC50,[16],5.00
COc1cc(C(=O)NS(=O)(=O)c2ccccc2C)ccc1Cc1cn(C)c2ccc(NC(=O)OC3CCCC3)cc12 [ZAFIRLUKAST],pIC50,[14],< 6.00
